This experiment deals with elastase. The experiment is described as follows: Degradation of rabbit lung Annexin I to 33 kDa(BP) by elastase, with and without PMSF. It is filed as biochemical. Conditions: PMSF present in the reaction solution; concentration not given; substrate rabbit lung Annexin I.

Molecules are shown by their SMILES. Entries after “also recorded” stand apart in the source; their conditions may differ.

Consider `O=S(=O)(F)Cc1ccccc1` [PMSF, phenylmethyl sulfonyl fluoride], for which the “inhibition of the proteolytic hydrolysis of Annexin I catalyzed by elastase” value was “totally inhibited; also recorded: prevented Annexin I degradation”.

(Values after patent publication US6180596A, “Methods of inhibiting phospholipase A2 and phospholipase A2 stimulator activities” (Wisconsin Alumni Research Foundation, priority 1998, dated 2001).)
